Experimental data taken from patent US6022307A, “Substituted dibenzothiophenes having antiangiogenic activity” (American Cyanamid Company, priority 1999, dated 2000).
Where a name gives a salt, the structure may show the parent alone.

Test system: KDR
Protocol: Inhibition of Binding of VEGF 165 to KDR & Flt-1 Receptors as Measured by SPA Assay
Preparation of conditioned media containing the KDR-Fc soluble VEGF receptor.:
Human 293KDR2 cells, which secrete a soluble KDR-Fc fusion protein, were grown in Dulbecco's Modified Eagle Medium supplemented with 10% fetal calf serum, 2 mM glutamine, 10 units/ml penicillin G sulfate, 10 μg/ml streptomycin sulfate and 175 μg/ml geneticin (G418) sulfate. Cells were plated at a density of 10^6 cells/100 mm dish and incubated at 37° C. in a humidified atmosphere containing 95% air and 5% CO2. After 10 days, conditioned medium was collected and centrifuged at 15,000 rpm for 15 min to remove dead cells. A total of 0.1 volume of 1.15% gelatin and 0.02 volume of 1M HEPES buffer (pH 8) was added. Leupeptin and pepstatin A were added to 1 μg/ml each.
Preparation of ^125 I-labelled VEGF ligand:
Recombinant human ^125 T-labelled VEGF 165 was purchased from Amersham (3,800 cpm/fmol). ^125,-labelled VEGF was diluted in DMEM supplemented with gelatin (0.15%) and HEPES buffer (20 mM) to a final concentration of 40,000 cpm/25 μl.
Preparation of SPA beads:
SPA PVT antibody-binding beads were purchased from Amersham. Each bottle of SPA beads (500 mg) was reconstituted in 25 ml of DMEM supplemented with gelatin (0.15%) and HEPES buffer (20 mM). The bottle contents were well mixed (15 min with a stir bar at room temperature).
SPA assays were performed in flat-bottom polystyrene 96 well microtitre plates.
(a) Pipette 50 μl of SPA beads to well.
(b) Pipette 25 μl of conditioned medium to well.
(d) Pipette 25 μl of ^125 J-VEGF 165 to well.
The appropriate control wells were set up to measure non-specific binding, solvent effect, etc. The assays were run in duplicate or triplicate wells. Plates were sealed and incubate at room temperature without shaking for 5 to 20 hours. Plates were then counted in a Packard TopCount microtitre plate liquid scintillation counter.
A typical assay gave 3,000 to 6,000 cpm bound. Background binding (measured in the presence of 100-fold molar excess of unlabelled VEGF 165) was typically 200 to 300 cpm bound. Compounds were tested at 30, 10, 3, 1, 0.3 and 0.1 μg/ml in DMSO. […] Half maximal binding was determined by the following equation:
s=maximal cpm bound in the absence of compound.
The IC50 values were determined graphically by the following procedure:
A graph was drawn plotting compound concentration (x-axis) versus cpm bound (y-axis).
The half maximal binding was calculated using the equation above.
A horizontal line (LINE A) was drawn which intersects the y-axis at the half maximal binding value.
A vertical line (LINE B) was drawn through the point where LINE A intersects the inhibition curve.
The point where LINE B intersects the x-axis was extrapolated from the graph to give the IC50 value.

Structure (SMILES) | IC50
COc1ccccc1C=CC(=O)Nc1cc2c(cc1S(=O)(=O)O)-c1cc(S(=O)(=O)O)c(NC(=O)C=Cc3ccccc3OC)cc1S2(=O)=O [Example 37, 3,7-Bis-[3-(2-methoxyphenyl)-acryloylamino]-5,5-dioxo-5H-5^6-dibenzothiophene-2,8-disulfonic acid, disodium salt] | 2 µg/mL
COc1ccc(/C=C/C(=O)Nc2cc3sc4cc(NC(=O)/C=C/c5ccc(OC)c(OC)c5OC)c(C(=O)O)cc4c3cc2C(=O)O)c(OC)c1OC [Example 11, 3,7-Bis-[3-(2,3,4-trimethoxyphenyl)acryloylamino]dibenzothiophene-2,8-dicarboxylic Acid, disodium salt] | 1.7 µg/mL
O=C(/C=C/c1cccc(C(F)(F)F)c1)Nc1cc2c(cc1S(=O)(=O)O)-c1cc(S(=O)(=O)O)c(NC(=O)/C=C/c3cccc(C(F)(F)F)c3)cc1S2(=O)=O [Example 38, 3,7-Bis-[3-(3-trifluoromethyl-phenyl)acryloyl-amino]-5,5-dioxo-5H-5^6-dibenzothiophene-2,8-disulfonic acid, disodium salt] | 5 µg/mL
CCOP(=O)(O)c1cc2c(cc1NC(=O)/C=C/c1ccc(OC)c(OC)c1Cl)S(=O)(=O)c1cc(NC(=O)/C=C/c3ccc(OC)c(OC)c3Cl)c(P(=O)(O)OCC)cc1-2 [Example 19, [3,7-Bis-[3-(2-chloro-3,4-dimethoxyphenyl)acryloylamino]-8-(ethoxyhydroxyphosphoryl)-5 .5-dioxo-5H-5λ^6-dibenzothiophen-2-yl]phosphonic acid monoethyl ester, disodium salt] | 0.55 µg/mL
O=C(Nc1cc2c(cc1S(=O)(=O)O)-c1cc(S(=O)(=O)O)c(NC(=O)c3cc4ccccc4s3)cc1S2(=O)=O)c1cc2ccccc2s1 [Example 40, 3,7-Bis-[(benzo[b]thiophene-2-carbonyl)amino]-5,5-dioxo-5H-5^ -dibenzothiophene-2,8-disulfonic acid, disodium] | 4 µg/mL
COc1ccccc1/C=C/C(=O)Nc1cc2c(cc1S(=O)(=O)O)-c1cc(S(=O)(=O)O)c(NC(=O)/C=C/c3ccccc3OC)cc1S2(=O)=O [Example 34, 3,7-Bis-[3-(2-methoxyphenyl)-acryloylamino]-5,5-dioxo-5H-5^6-dibenzothiophene-2,8-disulfonic acid, disodium salt] | 2.5 µg/mL
O=C(/C=C/c1ccncc1)Nc1cc2c(cc1S(=O)(=O)O)-c1cc(S(=O)(=O)O)c(NC(=O)/C=C/c3ccncc3)cc1S2(=O)=O [Example 28, 5,5-Dioxo-3,7-bis-(3-pyridin-4-ylacryloylamino)-5H-5^6-dibenzothiophene-2,8-disulfonic acid, disodium salt] | 2.5 µg/mL
Cc1ccc(C)c(/C=C/C(=O)Nc2cc3c(cc2S(=O)(=O)O)-c2cc(S(=O)(=O)O)c(NC(=O)/C=C/c4cc(C)ccc4C)cc2S3(=O)=O)c1 [Example 35, 3,7-Bis-[3-(2,5-dimethylphenyl)-acryloylamino]-5,5-dioxo-5H-5^6-dibenzothiophene-2,8-disulfonic acid, disodium] | 2.5 µg/mL
Cc1nn(C)c2sc(C(=O)Nc3cc4c(cc3S(=O)(=O)O)-c3cc(S(=O)(=O)O)c(NC(=O)c5cc6c(C)nn(C)c6s5)cc3S4(=O)=O)cc12 [Example 44, 3,7-Bis-[(1,3-di-methyl-1H-thieno[2,3-c]pyrazole-5-carbonyl)amino]-5,5-dioxo-5H-5^6-dibenzothiophene-2,8-disulfonic acid, disodium salt] | 1.5 µg/mL
O=C(Nc1cc2sc3cc(Cl)c(C(=O)O)cc3c2cc1C(=O)O)c1ccc2cc3ccccc3cc2c1 [Example 15, 3-[(2-Anthracenylcarbonyl)amino]-7-chlorodibenzothiophene-2,8-dicarboxylic acid, disodium salt] | 1.6 µg/mL
C=C(C(=O)Nc1cc2sc3cc(Cl)c(C(=O)O)cc3c2cc1C(=O)O)c1ccc(OC)c(OC)c1Cl [Example 14, 3-Chloro-7-[2-(2-chloro-3,4-dimethoxyphenyl)acryloylamino]dibenzothiophene-2,8-dicarboxylic acid, disodium salt] | 3 µg/mL
O=C(/C=C/c1ccc([N+](=O)[O-])cc1)Nc1cc2c(cc1S(=O)(=O)O)-c1cc(S(=O)(=O)O)c(NC(=O)/C=C/c3ccc([N+](=O)[O-])cc3)cc1S2(=O)=O [Example 25, 3,7-Bis-[3-(4-nitrophenyl)-acryloylamino]-5,5-dioxo-5H-5^6-dibenzothiophene-2,8-disulfonic acid, disodium salt] | 1 µg/mL
COc1cc(NC(C)=O)ccc1C(=O)Nc1cc2c(cc1S(=O)(=O)O)-c1cc(S(=O)(=O)O)c(NC(=O)c3ccc(NC(C)=O)cc3OC)cc1S2(=O)=O [Example 59, 3,7-Bis-[(4-acetylamino-2-methoxy-phenyl)carbonylamino]-5,5-dioxo-5H-5^6-dibenzothiophene-2,8-disulfonic acid, disodium salt] | 6 µg/mL

Continued, values first:

IC50 | Structure (SMILES)
0.6 µg/mL | O=C(Nc1cc2c(cc1S(=O)(=O)O)-c1cc(S(=O)(=O)O)c(NC(=O)c3cc4sccc4s3)cc1S2(=O)=O)c1cc2sccc2s1 [Example 43, 5,5-Dioxo-3,7-bis-[(thieno[3,2-b]thiophene-2-carbonyl)-amino]-5H-5^6-dibenzothiophene-2,8-disulfonic acid, disodium]
1.5 µg/mL | COc1ccc(C(=O)Nc2ccc(C(=O)Nc3cc4c(cc3S(=O)(=O)O)-c3cc(S(=O)(=O)O)c(NC(=O)c5ccc(NC(=O)c6ccc(OC)cc6OC)cc5OC)cc3S4(=O)=O)c(OC)c2)c(OC)c1 [Example 58, 3,7-Bis-({4-[(2,4-dimethoxy-phenyl)carbonyl-amino]-2-methoxy-phenyl}carbonyl-amino)-5,5-dioxo-5H-5^6-dibenzothiophene-2,8-disulfonic acid, disodium salt]
1.5 µg/mL | O=C(/C=C/c1cccc2ccccc12)Nc1cc2c(cc1S(=O)(=O)O)-c1cc(S(=O)(=O)O)c(NC(=O)/C=C/c3cccc4ccccc34)cc1S2(=O)=O [Example 26, 3,7-Bis-(3-naphthalen-1-yl-acryloylamino)-5,5-dioxo-5H-5^6-dibenzothiophene-2,8-disulfonic acid, disodium salt]
3.4 µg/mL | O=C(Nc1cc2sc3cc(NC(=O)c4ccc5cc6ccccc6cc5c4)c(C(=O)O)cc3c2cc1C(=O)O)c1ccc2cc3ccccc3cc2c1 [Example 3, 3,7-Bis[(2-anthracenylcarbonyl)amino]-2,8-dibenzothiophene-2,8-dicarboxylic acid, disodium salt]
0.8 µg/mL | N#Cc1ccc(/C=C/C(=O)Nc2cc3c(cc2S(=O)(=O)O)-c2cc(S(=O)(=O)O)c(NC(=O)/C=C/c4ccc(C#N)cc4)cc2S3(=O)=O)cc1 [Example 32, 3,7-Bis-[3-(4-cyanophenyl)-acryloylamino]-5,5-dioxo-5H-5^6-dibenzothiophene-2,8-disulfonic acid, disodium salt]
7 µg/mL | CCOc1cc2ccccc2cc1C(=O)Nc1cc2c(cc1S(=O)(=O)O)-c1cc(S(=O)(=O)O)c(NC(=O)c3cc4ccccc4cc3OCC)cc1S2(=O)=O [Example 53, 3,7-Bis-(3-ethoxy-naphthalen-2-ylcarbonylamino)-5,5-dioxo-5H-5^6-dibenzothiophene-2,8-disulfonic acid, disodium salt]
5 µg/mL | COc1ccc(C(=O)Nc2cc3c(cc2S(=O)(=O)O)-c2cc(S(=O)(=O)O)c(NC(=O)c4ccc(OC)cc4)cc2S3(=O)=O)cc1 [Example 50, 3,7-Bis-(4-methoxybenzoyl-amino)-5,5-dioxo-5H-5^6-dibenzothiophene-2,8-disulfonic acid, disodium salt]
